Test results published in PMC11671793, “Design, Synthesis, and Evaluation of Novel (−)‐cis‐N‐Normetazocine Derivatives: In Vitro and Molecular Modeling Insights” (Chemical Biology & Drug Design, 2024).
Like-named read-outs stand apart in the source and are kept apart here.

What was measured:
[1] = target: T1, KOR (kappa opioid receptor) (Cavia porcellus, UniProt P41144); conditions: cited from earlier work
T1 construct: from tissue; host or cells: guinea pig brain membranes

MOR (mu opioid receptor) [2] = target: T2, MOR (mu opioid receptor) (Rattus norvegicus, UniProt P33535); assay: MOR radioligand binding assay with [3H]-DAMGO; conditions: for K i DOR/K i MOR / K i KOR/K i MOR: selectivity ratio
T2 construct: from tissue; host or cells: rat brain membranes

[3] = target: T3, DOR (delta opioid receptor) (Rattus norvegicus, UniProt P33533); conditions: cited from earlier work
MOR (mu opioid receptor) [4] = target: T2, MOR (mu opioid receptor); conditions: cited from earlier work
[5] = target: T3, DOR (delta opioid receptor); assay: DOR radioligand binding assay with [3H]-Delthorphin
[6] = target: T1, KOR (kappa opioid receptor); assay: KOR radioligand binding assay with [3H]-U69,593; design: species or system guinea pig
DOR = target: DOR; design: method as in Pasquinucci et al. [2010]; conditions: Figure 1; ref Pasquinucci et al. [2010]; cited from earlier work
KOR = target: KOR; design: method as in Pasquinucci et al. [2010]; conditions: Figure 1; ref Pasquinucci et al. [2010]; cited from earlier work
MOR = target: MOR; design: method as in Pasquinucci et al. [2010]; conditions: Figure 1; ref Pasquinucci et al. [2010]; cited from earlier work
[7] = read-out: KOR Expected K i, experimental Ki as repeated in Table 2, previously synthesized compounds, ref Pasquinucci et al. ([2017]), Costanzo et al. ([2023])
[8] = read-out: DOR Expected K i, experimental Ki as repeated in Table 2, previously synthesized compounds, ref Pasquinucci et al. ([2017]), Costanzo et al. ([2023])
[9] = read-out: MOR Expected K i, experimental Ki as repeated in Table 2, previously synthesized compounds, ref Pasquinucci et al. ([2017]), Costanzo et al. ([2023])
[10] = K i (nM) ± SD KOR, [3H]-U69,593, mean ± SD of at least two experiments in duplicate
[11] = KOR Expected K i (nM), experimental Ki as repeated in Table 2

T2 sequence (P33535 whole entry): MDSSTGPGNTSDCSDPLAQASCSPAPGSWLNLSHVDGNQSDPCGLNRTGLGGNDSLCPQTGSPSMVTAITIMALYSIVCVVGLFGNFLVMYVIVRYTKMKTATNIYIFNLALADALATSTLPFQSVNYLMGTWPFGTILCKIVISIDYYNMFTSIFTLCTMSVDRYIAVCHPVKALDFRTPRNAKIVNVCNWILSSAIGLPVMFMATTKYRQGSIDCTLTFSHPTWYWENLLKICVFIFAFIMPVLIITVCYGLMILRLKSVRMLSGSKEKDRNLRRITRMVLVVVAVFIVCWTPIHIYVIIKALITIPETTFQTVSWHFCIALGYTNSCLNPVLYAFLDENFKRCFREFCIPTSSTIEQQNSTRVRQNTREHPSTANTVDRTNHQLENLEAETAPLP
T1 sequence (P41144 whole entry): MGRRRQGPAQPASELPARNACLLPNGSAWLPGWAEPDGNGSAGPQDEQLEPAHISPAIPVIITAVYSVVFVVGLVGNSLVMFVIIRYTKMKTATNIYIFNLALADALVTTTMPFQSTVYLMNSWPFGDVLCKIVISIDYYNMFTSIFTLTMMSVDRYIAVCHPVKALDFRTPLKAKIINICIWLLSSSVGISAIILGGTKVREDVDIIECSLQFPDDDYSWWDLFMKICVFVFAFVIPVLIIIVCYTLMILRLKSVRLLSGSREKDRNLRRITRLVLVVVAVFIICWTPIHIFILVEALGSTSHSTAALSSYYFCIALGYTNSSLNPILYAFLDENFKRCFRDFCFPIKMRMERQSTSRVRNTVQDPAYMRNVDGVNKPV
T3 sequence (P33533 whole entry): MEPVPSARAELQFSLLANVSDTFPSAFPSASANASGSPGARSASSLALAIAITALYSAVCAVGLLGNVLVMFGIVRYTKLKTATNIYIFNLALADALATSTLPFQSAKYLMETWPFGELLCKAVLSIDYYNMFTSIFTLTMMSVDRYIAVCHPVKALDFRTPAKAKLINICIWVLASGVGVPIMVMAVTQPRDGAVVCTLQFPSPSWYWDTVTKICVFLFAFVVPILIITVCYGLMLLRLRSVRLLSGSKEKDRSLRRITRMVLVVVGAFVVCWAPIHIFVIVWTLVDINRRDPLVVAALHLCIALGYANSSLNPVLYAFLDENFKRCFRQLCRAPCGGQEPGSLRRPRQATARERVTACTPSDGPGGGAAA

SMILES	K i DOR/K i MOR (MOR (mu opioid receptor) [2])	K i KOR/K i MOR (MOR (mu opioid receptor) [2])	Ki (MOR (mu opioid receptor) [2])	Ki [5]	Ki [6, 10]	further results
CCOC(=O)C(CCN1CCC2(C)c3cc(O)ccc3CC1C2C)c1ccccc1 (stereo not drawn) [Compound 1]	40.70	12.00	–	–	–	Ki ([1]; experimental Ki as repeated in Table 2, previously synthesized compounds, ref Pasquinucci et al. ([2017]), Costanzo et al. ([2023]), read-out: KOR Expected K i): 130 ± 15 nM; Ki ([1]; footnote b, ref Pasquinucci et al. ([2017]), read-out: K i (nM) ± SD KOR): 130 ± 15 nM; Ki ([3]; experimental Ki as repeated in Table 2, previously synthesized compounds, ref Pasquinucci et al. ([2017]), Costanzo et al. ([2023]), read-out: DOR Expected K i): 440 ± 22 nM; Ki ([3]; footnote b, ref Pasquinucci et al. ([2017]), read-out: K i (nM) ± SD DOR): 440 ± 22 nM; Ki (MOR (mu opioid receptor) [4]; experimental Ki as repeated in Table 2, previously synthesized compounds, ref Pasquinucci et al. ([2017]), Costanzo et al. ([2023]), read-out: MOR Expected K i): 10.8 ± 2 nM; Ki (MOR (mu opioid receptor) [4]; footnote b, ref Pasquinucci et al. ([2017]), read-out: K i (nM) ± SD MOR): 10.8 ± 2 nM
CC1C2Cc3ccc(O)cc3C1(C)CCN2CCC(C(=O)O)c1ccccc1 (stereo not drawn) [Compound 2]	23.30	–	–	–	–	Ki ([1]; read-out: K i (nM) ± SD KOR, footnote b, ref Pasquinucci et al. ([2017])): 3220 ± 60 nM; Ki [1, 7]: 3220 ± 60 nM; Ki [3, 8]: 275 ± 11 nM; Ki ([3]; read-out: K i (nM) ± SD DOR, footnote b, ref Pasquinucci et al. ([2017])): 275 ± 11 nM; Ki (MOR (mu opioid receptor) [4]; read-out: K i (nM) ± SD MOR, footnote b, ref Pasquinucci et al. ([2017])): 11.8 ± 2 nM; Ki (MOR (mu opioid receptor) [4]; [9]): 11.8 ± 2 nM
COC(=O)CCN1CC[C@@]2(C)c3cc(O)ccc3C[C@@H]1[C@@H]2C [Compound 3, Methyl 3‐[(2R,6R,11R)‐8‐hydroxy‐6,11‐dimethyl‐1,4,5, 6‐tetrahydro‐2,6‐methanobenzo[d]azocin‐3(2H]‐yl)propanoate]	26.98	3.19	19 ± 3 nM	513 ± 30 nM	60.7 ± 8 nM	Ki [6, 11]: 60.7 ± 0.7 nM
COC(=O)CCCN1CC[C@@]2(C)c3cc(O)ccc3C[C@@H]1[C@@H]2C [Compound 4, Methyl 4‐((2R,6R,11R)‐8‐hydroxy‐6,11‐dimethyl‐1,4,5,6‐tetrahydro‐2,6‐ methanobenzo[d]azocin‐3(2H)‐yl)butanoate]	3.21	1.04	67.8 ± 7 nM	218 ± 20 nM	70.5 nM	Ki [6, 11]: 70.5 ± 0.76 nM
C[C@H]1[C@H]2Cc3ccc(O)cc3[C@]1(C)CCN2CCC(=O)O [Compound 5, 3‐((2R,6R,11R)‐8‐Hydroxy‐6,11‐dimethyl‐1,4,5,6‐tetrahydro‐2,6‐methanobenzo[d]azocin‐3(2H)‐yl)propanoic acid]	2.88	–	383 ± 21 nM	1100 ± 54 nM	> 5000 nM	–
C[C@H]1[C@H]2Cc3ccc(O)cc3[C@]1(C)CCN2CCCC(=O)O [Compound 6, 4‐((2R,6R,11R)‐8‐Hydroxy‐6,11‐dimethyl‐1,4,5,6‐tetrahydro‐2,6‐methanobenzo[d]azocin‐3(2H)‐yl)butanoic acid]	1.21	–	992 ± 55 nM	1200 ± 64 nM	> 5000 nM	–
C[C@H]1[C@H]2Cc3ccc(O)cc3[C@]1(C)CCN2CCC(=O)NO [Compound 7, N‐Hydroxy‐3‐((2R,6R,11R)‐8‐hydroxy‐6,11‐dimethyl‐1,4,5,6‐tetrahydro‐2,6‐methanobenzo[d]azocin‐3(2H)‐yl)propanamide]	10.89	–	30.8 ± 2 nM	335 ± 19 nM	> 5000 nM	–
C[C@H]1[C@H]2Cc3ccc(O)cc3[C@]1(C)CCN2CCCC(=O)NO [Compound 8, N‐Hydroxy‐4‐((2R,6R,11R)‐8‐hydroxy‐6,11‐dimethyl‐1,4,5,6‐tetrahydro‐2,6‐methanobenzo[d]azocin‐3(2H)‐yl)butanamide]	30.83	–	42.2 ± 3 nM	1300 ± 80 nM	> 5000 nM	–
CC1C2Cc3ccc(O)cc3C1(C)CCN2CCC(=O)Nc1ccccc1 (stereo not drawn) [LP1]	–	–	–	–	–	Ki (DOR): 29.1 nM; Ki (KOR): 110 nM; Ki (MOR): 0.83 nM
COC(CN1CCC2(C)c3cc(O)ccc3CC1C2C)c1ccccc1 (stereo not drawn) [LP2]	6.11	14.10	–	–	–	Ki ([1]; read-out: K i (nM) ± SD KOR, footnote c, ref Costanzo et al. ([2023])): 15.2 ± 0.8 nM; Ki [1, 7]: 15.2 ± 0.8 nM; Ki [3, 8]: 6.61 ± 0.6 nM; Ki ([3]; read-out: K i (nM) ± SD DOR, footnote c, ref Costanzo et al. ([2023])): 6.61 ± 0.6 nM; Ki (MOR (mu opioid receptor) [4]; read-out: K i (nM) ± SD MOR, footnote c, ref Costanzo et al. ([2023])): 1.08 ± 0.1 nM; Ki (MOR (mu opioid receptor) [4]; [9]): 1.08 ± 0.1 nM
